Here are results for 2 compounds from patent publication US7105565B2 (dated 2006).

A word on the melting point: it is the temperature, or range, at which the solid turns liquid. As to `CC(C)CC(C)c1ccccc1NC(=O)c1cn(C)cc1C(F)(F)F` (centres unmarked), the melting point fell in the range of 83 to 85 °C. To `COCn1cc(C(=O)Nc2ccccc2C(C)CC(C)C)c(C(F)(F)F)c1` (centres unmarked) belongs 75 to 77 °C.
